Type in all cases: biochemical
For assay [1], the target named is T1, purified farnesyl:protein transferase (Rattus norvegicus, UniProt Q02293+Q04631).
T1 construct: Brains from 50 male Sprague-Dawley rats (100-150 g) were homogenized; from tissue
The assay can be described thus: Farnesylation of tetrapeptides by purified farnesyl:protein transferase, thin layer chromatography (substrate or pure inhibitor). Particulars: 3.6 μM tetrapeptide, purified enzyme (FIG. 15). The method, then:
FIG. 15. […] The standard assay mixture (25 μl) contained 17 pmol [^3H]FPP (44,000 dpm/pmol), 5 ng of purified farnesyl:protein transferase, 0.2% (w/v) octyl-β-D-glucoside, and 3.6 μM of the indicated tetrapeptide. After incubation for 15 min at 37° C., the entire reaction mixture was subjected to thin layer chromatography for 4 h on Polygram SIL G sheet (Brinkmann Instruments) in a solvent system containing N-propanol/concentrated NH4OH/water (6:3:1). The TLC sheet was then dried, sprayed with ENHANCE Spray (Dupont-New England Nuclear) and exposed to Kodak X-OMAT AR Film XAR-5 for 25 h at −70° C.

Assay [2] deals with T2, rat brain farnesyl:protein transferase (Rattus norvegicus, UniProt Q02293+Q04631).
T2 construct: Brains from 50 male Sprague-Dawley rats (100-150 g) were homogenized; from tissue
The assay can be described thus: Farnesyl:protein transferase inhibition: competition with p21H-ras for [3H]farnesyl from [3H]FPP, partially purified enzyme, TCA filter assay. The method, then: Farnesyl:protein transferase activity was determined by measuring the amount of ^3H-farnesol transferred from ^3H]farnesyl pyrophosphate ([^3H]FPP) to p21^H-ras protein. The standard reaction mixture contained the following concentrations of components in a final volume of 25 μl: 50 mM Tris-chloride (pH 7.5), 50 μM ZnCl2, 20 mM KCl, 1 mM DTT, and 40 μM p21^H-ras. The mixture also contained 10 pmoles of [^3H]FPP (−30,000 dpm/pmol) and 1.8-3.5 μg of partially purified farnesyl:protein transferase (see below). After incubation for 1 h at 37° C. in 12×75-mm borosilicate tubes, the reaction was stopped by addition of 0.5 ml of 4% SDS and then 0.5 ml of 30% trichloroacetic acid (TCA).
The tubes were vortexed and left on ice for 45-60 min, after which 2 ml of a 6% TCA/2% SDS solution were added. […] The tubes were rinsed twice with 2 ml of the same solution, and each filter was washed five times with 2 ml of 6% TCA, dried, and counted in a scintillation counter. One unit of activity is defined as the amount of enzyme that transfers 1 pmol of [^3H]farnesol from [^3H]FPP into acid-precipitable p21^H-ras per hour under the standard conditions.
In the enzyme characterization experiments of FIGS. 1-4, 8, and 9, a partially purified fraction of farnesyl:protein transferase was used. […] The column was equilibrated with 50 mM Tris-chloride (pH 7.5) containing 1 mM DTT, 0.2 M NaCl, 20 μM ZnCl2, and 0.2% octyl-β-glucopyranoside and eluted with the same buffer at a flow rate of 15 ml/h.
This blank value was subtracted before calculating “% of control” values.

Assay [3] deals with T3, partially purified rat brain farnesyl:protein transferase (Rattus norvegicus, UniProt Q02293+Q04631).
T3 construct: Brains from 50 male Sprague-Dawley rats (100-150 g) were homogenized; from tissue
The assay can be described thus: Substrate saturation of farnesyl:protein transferase (FIG. 2). The following applies: 1 h at 37° C. As for the experimental part: FIG. 2. Substrate Saturation Curves for Farnesyl:Protein Transferase. Panel A, each standard reaction mixture contained 1.8 μg of partially purified farnesyl transferase, 40 μg p21^H-ras, [^3H]FPP (250,000 dpm); and varying amounts of unlabeled FPP to give the indicated final concentration of [^3H]FPP. […] For both panels, assays were carried out in duplicate for 1 h at 37° C., and TCA-precipitable radioactivity was measured as described in the Example.
Farnesyl:protein transferase activity was determined by measuring the amount of ^3H-farnesol transferred from ^3H]farnesyl pyrophosphate ([^3H]FPP) to p21^H-ras protein. The standard reaction mixture contained the following concentrations of components in a final volume of 25 μl: 50 mM Tris-chloride (pH 7.5), 50 μM ZnCl2, 20 mM KCl, 1 mM DTT, and 40 μM p21^H-ras. The mixture also contained 10 pmoles of [^3H]FPP (−30,000 dpm/pmol) and 1.8-3.5 μg of partially purified farnesyl:protein transferase (see below). […]
The tubes were vortexed and left on ice for 45-60 min, after which 2 ml of a 6% TCA/2% SDS solution were added. […] The tubes were rinsed twice with 2 ml of the same solution, and each filter was washed five times with 2 ml of 6% TCA, dried, and counted in a scintillation counter. […]

“Also recorded” adds a separate entry of the source. Residues, ends and D or L forms follow the SMILES beside them. No end group written: not given here.

For the compound `CC[C@H](C)[C@H](NC(=O)[C@@H](NC(=O)[C@@H](N)CS)C(C)C)C(=O)N[C@@H](CCSC)C(=O)O` [CVIM] (H-CVIM-OH; N-terminus and C-terminus assumed), in assay [1], the “pure inhibitor or substrate for farnesylation” value is recorded as “Farnesylation”. For the same compound, the “inhibitory activity against farnesylation of p21H-ras (in words)” value (“inhibitory activity” below) in assay [2] was “sufficient for competition”.

In the case of “CFVM: related peptide, inhibitory through action as a substrate for farnesylation (CVFM)”, in assay [1], the “pure inhibitor or substrate for farnesylation” value is on record as “not a “pure” inhibitor”. Turning to `CC(C)=CCC/C(C)=C/CC/C(C)=C/COP(=O)(O)OP(=O)(O)O` [[^3H]farnesyl pyrophosphate, [1-^3H]Farnesyl pyrophosphate], the “concentration giving half-maximal reaction velocity” value in assay [3] is “approximately 0.5 μM”. For “TKVCIM: hexapeptide with cysteine transposed from fourth to third position from the COOH-terminus”, the “inhibitory activity” value in assay [2] is reported as “severely reduced inhibitory activity; also recorded: inhibitory activity of the peptide is reversed”. For “S-acetoamidated CVIM: CVIM alkylated on cysteine with iodoacetamide (C(acetamide)VIM)”, the “inhibitory activity” value in assay [2] is recorded as “appears to lose much of its inhibitory activity”.

Source of the values: patent US6632626B1, “Methods of assaying farnesyl transferase” (Board of Regents, The University of Texas System, priority 1990, dated 2003).
